{"source": "patent US20230055961A1", "about": "“PENTAFLUOROBENZENESULFONAMIDE DERIVATIVES AND USES THEREOF” (Dunad Therapeutics Ltd., priority 2019, published 2023)", "key": {"BTK [1]": {"target": "T1, BTK (Homo sapiens, UniProt Q06187)", "T1 sequence (Q06187 whole entry, species assumed)": "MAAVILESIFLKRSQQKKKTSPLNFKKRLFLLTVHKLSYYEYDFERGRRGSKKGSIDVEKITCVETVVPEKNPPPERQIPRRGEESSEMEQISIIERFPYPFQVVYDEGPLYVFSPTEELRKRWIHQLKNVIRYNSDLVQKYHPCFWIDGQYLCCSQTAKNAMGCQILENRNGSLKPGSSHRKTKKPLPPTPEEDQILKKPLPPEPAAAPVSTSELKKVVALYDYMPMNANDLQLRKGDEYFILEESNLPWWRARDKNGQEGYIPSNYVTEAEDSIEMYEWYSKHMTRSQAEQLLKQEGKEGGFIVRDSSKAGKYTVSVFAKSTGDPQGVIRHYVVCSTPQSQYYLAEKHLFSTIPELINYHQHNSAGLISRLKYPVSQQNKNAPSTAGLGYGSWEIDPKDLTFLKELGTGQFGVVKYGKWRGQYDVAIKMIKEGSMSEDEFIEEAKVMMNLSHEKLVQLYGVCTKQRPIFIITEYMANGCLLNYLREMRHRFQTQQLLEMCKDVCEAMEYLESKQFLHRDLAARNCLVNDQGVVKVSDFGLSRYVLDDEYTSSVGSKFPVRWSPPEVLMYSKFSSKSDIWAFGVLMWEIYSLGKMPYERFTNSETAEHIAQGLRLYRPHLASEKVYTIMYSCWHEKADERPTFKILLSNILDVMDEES", "experiment": "BTK washout experiment (residual activity after 400-fold dilution)", "assay_type": "biochemical", "settings": "6-h incubation of 50 nM BTK with 177 nM compound, relative to DMSO alone", "procedure": "After a 3-h incubation of 40 nM BTK in the presence of 296 nM of compound Compound 5-1, a 400-fold dilution was performed to remove excess inhibitor.\nBy way of contrast, a “washout” experiment performed with ARQ-531 gives a very different result, because this compound lacks a warhead and is known to inhibit BTK reversibly. After a 6-h incubation of 50 nM BTK in the presence of 177 nM of ARQ-531, a 400-fold dilution was performed to remove excess inhibitor. […] This indicates to one of ordinary skill in the art that the enzyme was not inhibited irreversibly during the incubation with ARQ-531."}, "BTK [2]": {"target": "T1, BTK", "experiment": "Total BTK degradation assay (Total BTK-HTRF) in RAMOS cells", "assay_type": "cell-based", "experimental": "A Total BTK-HTRF assay (Cisbio Total BTK cat #63ADK064PEG) was performed to quantitate the ability of test compounds to degrade BTK protein levels in RAMOS cells. This total protein assay monitors the steady state protein level in a sandwich assay format using two different specific antibodies after lysis of the cell-membrane. The antibodies recognise two different epitopes on BTK and are labelled with Eu3^+-cryptate (donor) and d2 (acceptor). […] The specific signal modulates positively in proportion to the total concentration of BTK.\nIn order to evaluate the degradation of BTK by test compounds, a total BTK degradation assay was performed (Cisbio Total BTK cat #63ADK064PEG). The frozen stock solutions of the two different BTK antibodies were diluted 20-fold with the detection buffer and pre-mixed before use in the assay. Supplemented lysis buffer (4×) was prepared by diluting the blocking reagent solution 25-fold with lysis buffer (4×) and mixing gently.\nwere plated at a density of 50K cells/well (8 uL) in RPMI medium with 10% FBS into 384-well white detection plates. […] The plate was read on an Biotek Synergy Neo2 plate reader using 330 nm excitation, 620 nm-donor emission and 670 nm-acceptor emission."}, "FGFR1": {"target": "FGFR1 (Homo sapiens, UniProt P11362)", "sequence (P11362 22-822, species assumed)": "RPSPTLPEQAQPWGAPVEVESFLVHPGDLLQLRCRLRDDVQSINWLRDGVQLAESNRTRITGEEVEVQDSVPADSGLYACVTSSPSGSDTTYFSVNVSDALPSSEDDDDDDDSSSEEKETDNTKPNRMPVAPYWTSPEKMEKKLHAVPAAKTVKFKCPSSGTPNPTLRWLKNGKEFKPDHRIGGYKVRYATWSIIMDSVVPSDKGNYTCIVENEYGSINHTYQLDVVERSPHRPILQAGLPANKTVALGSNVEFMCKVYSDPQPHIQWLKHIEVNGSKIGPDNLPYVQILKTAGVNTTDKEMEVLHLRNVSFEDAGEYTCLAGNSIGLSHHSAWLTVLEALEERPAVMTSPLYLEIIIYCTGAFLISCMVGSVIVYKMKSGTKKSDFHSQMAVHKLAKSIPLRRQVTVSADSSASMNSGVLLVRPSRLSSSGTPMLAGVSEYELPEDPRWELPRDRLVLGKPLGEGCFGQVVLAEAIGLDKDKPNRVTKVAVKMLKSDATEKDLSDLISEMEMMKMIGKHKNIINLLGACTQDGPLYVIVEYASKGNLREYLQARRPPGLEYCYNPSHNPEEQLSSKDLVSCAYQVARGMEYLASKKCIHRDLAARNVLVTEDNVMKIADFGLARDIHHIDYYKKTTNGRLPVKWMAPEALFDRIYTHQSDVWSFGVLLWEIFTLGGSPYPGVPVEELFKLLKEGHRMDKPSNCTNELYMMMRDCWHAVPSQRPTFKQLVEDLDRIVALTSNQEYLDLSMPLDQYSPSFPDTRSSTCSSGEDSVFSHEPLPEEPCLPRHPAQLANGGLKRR", "experiment": "In vitro kinase inhibition studies (Table 9), FGFR1", "assay_type": "biochemical"}, "FGFR4": {"target": "FGFR4 (Homo sapiens, UniProt P22455)", "sequence (P22455 22-802, species assumed)": "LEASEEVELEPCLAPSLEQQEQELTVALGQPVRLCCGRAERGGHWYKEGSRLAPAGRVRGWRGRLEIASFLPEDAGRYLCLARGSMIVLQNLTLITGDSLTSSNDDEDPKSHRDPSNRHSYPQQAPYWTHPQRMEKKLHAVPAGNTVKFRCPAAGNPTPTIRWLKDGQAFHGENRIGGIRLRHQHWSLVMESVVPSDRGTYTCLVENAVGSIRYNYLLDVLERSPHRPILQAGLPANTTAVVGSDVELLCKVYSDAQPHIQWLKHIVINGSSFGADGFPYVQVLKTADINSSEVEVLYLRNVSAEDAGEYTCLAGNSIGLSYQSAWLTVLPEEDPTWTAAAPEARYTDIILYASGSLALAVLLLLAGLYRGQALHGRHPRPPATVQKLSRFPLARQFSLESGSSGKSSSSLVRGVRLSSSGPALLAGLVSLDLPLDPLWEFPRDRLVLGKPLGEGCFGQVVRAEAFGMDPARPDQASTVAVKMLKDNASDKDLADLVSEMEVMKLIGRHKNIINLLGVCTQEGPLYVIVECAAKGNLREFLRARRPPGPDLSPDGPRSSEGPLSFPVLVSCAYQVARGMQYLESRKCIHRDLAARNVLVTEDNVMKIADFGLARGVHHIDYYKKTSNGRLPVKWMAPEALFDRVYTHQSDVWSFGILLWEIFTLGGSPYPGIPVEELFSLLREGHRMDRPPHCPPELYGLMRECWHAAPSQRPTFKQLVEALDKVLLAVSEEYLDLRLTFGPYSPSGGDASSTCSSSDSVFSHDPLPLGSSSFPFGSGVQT", "experiment": "In vitro kinase inhibition studies (Table 9), FGFR4", "assay_type": "biochemical"}, "JAK3": {"target": "T2, JAK3 (Homo sapiens, UniProt P52333)", "T2 sequence (P52333 1-1124)": "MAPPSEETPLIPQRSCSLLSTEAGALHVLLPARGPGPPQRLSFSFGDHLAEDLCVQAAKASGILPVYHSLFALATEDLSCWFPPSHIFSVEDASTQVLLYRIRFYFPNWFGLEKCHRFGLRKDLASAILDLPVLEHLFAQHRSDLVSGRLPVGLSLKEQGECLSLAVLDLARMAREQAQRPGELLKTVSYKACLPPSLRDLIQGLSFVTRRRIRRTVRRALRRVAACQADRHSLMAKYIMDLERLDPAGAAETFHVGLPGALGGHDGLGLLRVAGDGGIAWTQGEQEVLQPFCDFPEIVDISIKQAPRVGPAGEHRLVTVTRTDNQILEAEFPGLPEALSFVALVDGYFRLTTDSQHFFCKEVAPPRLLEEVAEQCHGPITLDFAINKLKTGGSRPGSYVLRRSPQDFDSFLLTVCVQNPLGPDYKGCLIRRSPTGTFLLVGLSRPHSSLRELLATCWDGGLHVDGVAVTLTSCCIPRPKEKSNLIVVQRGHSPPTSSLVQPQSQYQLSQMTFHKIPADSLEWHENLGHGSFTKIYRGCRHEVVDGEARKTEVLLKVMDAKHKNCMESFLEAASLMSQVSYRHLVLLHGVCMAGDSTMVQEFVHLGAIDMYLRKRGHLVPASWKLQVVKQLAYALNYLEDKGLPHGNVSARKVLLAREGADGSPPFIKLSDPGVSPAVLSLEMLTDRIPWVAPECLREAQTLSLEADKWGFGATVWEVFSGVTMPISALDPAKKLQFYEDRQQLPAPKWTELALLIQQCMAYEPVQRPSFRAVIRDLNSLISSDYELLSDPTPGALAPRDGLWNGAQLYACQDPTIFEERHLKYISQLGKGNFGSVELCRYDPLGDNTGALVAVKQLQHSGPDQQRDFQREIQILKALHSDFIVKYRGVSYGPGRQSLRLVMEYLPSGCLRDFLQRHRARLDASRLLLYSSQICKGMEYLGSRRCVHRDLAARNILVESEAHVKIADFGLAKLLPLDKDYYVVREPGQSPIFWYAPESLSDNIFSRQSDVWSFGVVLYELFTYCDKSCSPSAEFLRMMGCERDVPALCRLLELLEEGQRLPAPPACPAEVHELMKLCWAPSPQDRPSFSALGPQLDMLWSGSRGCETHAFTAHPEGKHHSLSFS", "experiment": "In vitro JAK3 inhibition, biochemical IC50 (no preincubation)", "settings": "Table 8", "procedure": "(§1) In vitro BTK and JAK3 inhibition studies are shown in Table 7 and Table 8 (no preincubation)."}, "BTK [3]": {"target": "T1, BTK", "experiment": "In vitro BTK inhibition, biochemical IC50 (no preincubation)", "settings": "Table 8", "procedure": "IC50 Values (nM) for the Inhibition of BTK Activity\nas §1"}, "RL cells": {"test_system": "RL cells", "experiment": "IC50 of Ibrutinib analogs against human cancer cells, RL cells (Table 14)", "assay_type": "cell-based", "settings": "Homo sapiens, RL", "experimental": "1×10^4 cells (NHF cells)/well are plated in 96-well assay plates in culture medium. […] After 24 hrs, test compounds and vehicle controls are added to appropriate wells so the final volume is 100p in each well. The cells are cultured for the desired test exposure period (72 hrs) at 37° C. and 5% CO2. The assay plates are removed from 37° C. incubator and 20 μl/well of CellTiter-Blue® Reagent is added. The plates are incubated using standard cell culture conditions for 1-4 hours and the plates are shaken for 10 seconds and record fluorescence at 560/590 nm. […] Therapeutic index=(IC50 human fibroblasts/IC50 […] )"}, "[4]": {"test_system": "normal pooled human fibroblasts", "experiment": "IC50 of Ibrutinib analogs against normal human cells, pooled human fibroblasts (Table 14)", "assay_type": "cell-based", "settings": "Fibroblast, TABLE 9", "procedure": "Anti-cancer efficacy of exemplary compounds of this application is assessed in vitro in different cancer cell lines. Cell viability is examined following treatment at various concentration of inhibitor (0.097656-50 μM) using a cell Titer-Blue cell viability assay. 1×10^4 cells (NHF cells)/well are plated in 96-well assay plates in culture medium. All cells are grown in DMEM, IMDM and RPMI-1640 supplemented with 10% FBS. After 24 hrs, test compounds and vehicle controls are added to appropriate wells so the final volume is […] in each well. The cells are cultured for the desired test exposure period (72 hrs) at 37° C. and 5% CO2. The assay plates are removed from 37° C. incubator and 20 μl/well of CellTiter-Blue® Reagent is added. The plates are incubated using standard cell culture conditions for 1-4 hours and the plates are shaken for 10 seconds and record fluorescence at 560/590 nm.\nTherapeutic index=(IC50 human fibroblasts/IC50 RLcells)"}}, "note": "Read-outs that look alike come from different tables or passages of the source."}
{"smiles": "O=C(c1ccc(Oc2ccccc2)cc1Cl)c1c[nH]c2ncnc(N[C@@H]3CC[C@@H](CO)OC3)c12", "note": "[ARQ-531]", "values": [{"measurement": "enzyme activity after washout", "setting": "BTK [1]", "result": "recovered all of its activity"}]}
{"smiles": "COCCOc1ccc(Nc2ncc(F)c(NCCCNS(=O)(=O)c3c(F)c(F)c(F)c(F)c3F)n2)cc1", "note": "[Compound 5-7, 2,3,4,5,6-pentafluoro-N-(3-((5-fluoro-2-((4-(2-methoxyethoxy)phenyl)amino)pyrimidin-4-yl)amino)propyl)benzenesulfonamide]", "values": [{"measurement": "Percent residual BTK after 24 hours with test compound (5 μM)", "setting": "BTK [2]", "result": 63, "unit": "%"}, {"measurement": "IC50", "setting": "FGFR1", "result": "0.3 to 2", "unit": "µM"}, {"measurement": "IC50", "setting": "FGFR4", "result": "0.3 to 2", "unit": "µM"}]}
{"smiles": "C[C@H]1CC[C@@H](Nc2ncnc3[nH]ccc23)CN1S(=O)(=O)c1c(F)c(F)c(F)c(F)c1F", "note": "[Compound 5-8, N-((3R,6S)-6-methyl-1-((perfluorophenyl)sulfonyl)piperidin-3-yl)-7H-pyrrolo[2,3-d]pyrimidin-4-amine]", "values": [{"measurement": "JAK3 (IC50, nM)", "setting": "JAK3", "result": "E (E: >1000 nM to ≤ 0,000 nM)"}]}
{"smiles": "O=S(=O)(NCCNc1ncnc2[nH]ccc12)c1c(F)c(F)c(F)c(F)c1F", "note": "[Compound 5-10, N-(2-((7H-pyrrolo[2,3-d]pyrimidin-4-yl)amino)ethyl)-2,3,4,5,6-pentafluorobenzene sulfonamide]", "values": [{"measurement": "JAK3 (IC50, nM)", "setting": "JAK3", "result": "E (E: >1000 nM to ≤ 0,000 nM)"}]}
{"smiles": "CN(CCNc1ncnc2[nH]ccc12)S(=O)(=O)c1c(F)c(F)c(F)c(F)c1F", "note": "[Compound 5-11, N-(2-((7H-pyrrolo[2,3-d]pyrimidin-4-yl)amino)ethyl)-2,3,4,5,6-pentafluoro-N-methylbenzenesulfonamide]", "values": [{"measurement": "JAK3 (IC50, nM)", "setting": "JAK3", "result": "E (E: >1000 nM to ≤ 0,000 nM)"}]}
{"smiles": "COCCOc1ccc(Nc2ncc(F)c(Nc3cccc(NS(=O)(=O)c4c(F)c(F)c(F)c(F)c4F)c3)n2)cc1", "note": "[Compound 5-15, 2,3,4,5,6-pentafluoro-N-(3-((5-fluoro-2-((4-(2-methoxyethoxy)phenyl)amino)pyrimidin-4-yl)amino)phenyl)benzenesulfonamide]", "values": [{"measurement": "Percent residual BTK after 24 hours with test compound (5 μM)", "setting": "BTK [2]", "result": 75, "unit": "%"}, {"measurement": "IC50", "setting": "BTK [3]", "result": "0.1 to 1", "unit": "µM"}, {"measurement": "IC50", "setting": "FGFR1", "result": "0.0001 to 0.01", "unit": "µM"}, {"measurement": "IC50", "setting": "FGFR4", "result": "0.01 to 0.3", "unit": "µM"}]}
{"smiles": "C=CC(=O)N1CCC[C@@H](n2nc(-c3ccc(Oc4ccccc4)cc3)c3c(N)ncnc32)C1", "note": "[Ibrutinib, reference compound]", "values": [{"measurement": "IC50", "setting": "RL cells; RL cells, read-out: IC50 in RL cells", "result": 10.3, "unit": "µM"}, {"measurement": "IC50", "setting": "RL cells; TABLE 9, read-out: RL (IC50)", "result": 10.3, "unit": "µM"}, {"measurement": "IC50", "setting": "RL cells; Table 14, RL human non-Hodgkin's lymphoma B cell line, read-out: RL (IC50)", "result": 10.3, "unit": "µM"}, {"measurement": "IC50", "setting": "[4]", "result": 26.8, "unit": "µM"}]}
